Measured values: patent US20170217914A1, “Novel Triarylethylene Compounds and Methods Using Same” (The Penn State Research Foundation, priority 2014, published 2017)
Like-named read-outs stand apart in the source and are kept apart here.

Columns and labels:
[1] = test system: normal mouse embryonic fibroblast (MEF) cells; assay: MTT cell viability assay, normal MEF cells; settings: 48 h
Procedure: (§3) An MTT solution was added to each well and incubated for 3 h at 37° C. After 3 h, DMSO was added and the optical density was measured at 570 nm using a 96-well multiscanner (Dynex Technologies, MRX Revelation; Chantilly, Va., USA). Backgrounds were subtracted at 630 nm. IC50 values were calculated by non-linear regression analysis using Prism software.

MDA-MB-231 cells [2] = assay: Live/Dead assay by flow cytometry, MDA-MB-231 cells; format: cell-based, human; settings: 24 h, 10 μM
Text: (§1) To measure cell death, the Live/Dead assay (Life technologies, USA) was used, which determines intracellular esterase activity and plasma membrane integrity (Pandey et al., 2013, PloS One 8:e78570). Nonfluorescent polyanionic dye calcein AM is retained by live cells and by enzymatic conversion (esterase) it becomes fluorescent, produces intense green fluorescence in live cells. Ethidium homodimer enters cells with damaged membranes and binds to nucleic acids, thereby producing a bright red fluorescence in dead cells. […] Cells were stained with the Live and Dead reagent (5 μM ethidium homodimer and 5 μM calcein-AM) and analyzed by flow cytometry according to the manufacture's protocols.

[3] = test system: MDA-MB-231 (ER-negative) human breast cancer cell line; assay: MTT cell viability assay, MDA-MB-231 cells; settings: for anticancer activity in initial screening: 0.5-25 μM, 48 h (FIG. 3); for times more cytotoxic than Tamoxifen / times more effective than Ospemifene: 96 h time point; for IC50: Homo sapiens, read-out: MDA-MB-231 (ER− negative) IC50
Procedure: as §3
(§4) The effects of novel triarylethylene derivatives on the cell viability were determined by the MTT uptake method using previously described methods (Kaur et al., 2014, Eur. J. Med. Chem. 86:211-218). Briefly, 3000 cells were incubated with various concentrations of compounds in triplicate in a 96-well plate for 72 h at 37° C. An MTT solution was added to each well and incubated for 3 h at 37° C. After 3 h, DMSO was added and the optical density was measured at 570 nm using a 96-well multiscanner (Dynex Technologies, MRX Revelation; Chantilly, Va., USA). Backgrounds were subtracted at 630 nm. IC50 values were calculated by non-linear regression analysis using Prism software.

[4] = test system: MCF-7 (ER-positive) human breast cancer cell line; assay: MTT cell viability assay, MCF-7 cells; settings: for anticancer activity in initial screening: 0.5-25 μM, 48 h (FIG. 3); for times more cytotoxic than Tamoxifen / times more effective than Ospemifene: 96 h time point; for IC50: Homo sapiens, read-out: MCF-7 (ER positive) IC50
Procedure: as §3, §4

MCF-7 cells = assay: Live/Dead assay by flow cytometry, MCF-7 cells; format: cell-based, human; settings: 24 h
Text: as §1

MDA-MB-231 cells [5] = assay: In vitro Matrigel invasion assay; format: cell-based, human; settings: dose dependent
Procedure: Human breast cancer MDA-MB-231 cells were serum starved for 24 h in serum-free medium (DMEM without FBS). After starving 50,000 cells were transferred onto Matrigel pre-coated invasion inserts (upper chamber, BD Biocoat). Lower chambers of plate were filled with complete medium (DMEM and 10% FBS) and cells were allowed to migrate under chemotaxis. […] After incubation cells that had invaded to the opposite side of the Transwell membrane were washed with PBS and fixed in chilled 70% ethanol for 15 min and air dried. Cells were stained with 0.5% crystal violet for 10 min. Cells were washed, dried, and images were captured at 40× magnification.

c-Myc = assay: Western blot, c-Myc expression in breast cancer cells; format: cell-based, human; settings: MDA-MB-231 and MCF-7 cells, 24 h
Procedure: (§2) To determine the effect of novel triarylethylene derivatives on proteins involved in metastasis, and adhesion, whole-cell extracts were prepared by subjecting cells to lysis in RIPA buffer supplemented with protease and phosphatase inhibitor cocktails using previously described methods (Pandey et al., 2014, Exp. Hematol. 42:883-896). Lysates were spun at 15,000 rpm for 10 minutes to remove insoluble material. Supernatant were collected and kept at −80° C. Lysates were resolved by SDS-PAGE. After electrophoresis, the proteins were electro-transferred to PVDF membranes, blotted with the relevant antibodies, and detected by enhanced chemo-luminescence reagent.

caveolin = assay: Western blot, caveolin expression in breast cancer cells; format: cell-based, human; settings: MDA-MB-231 and MCF-7 cells, 24 h
Procedure: as §2

MMP-9 = assay: Western blot, MMP-9 expression in breast cancer cells; format: cell-based, human; settings: MDA-MB-231 and MCF-7 cells, 24 h
Procedure: as §2

[6] = MTT, 72 h, versus Ospemifene and Tamoxifen

IC50 ([3]; MDA-MB-231, 48 h) [µM]	IC50 ([3]; MDA-MB-231, 96 h) [µM]	IC50 ([4]; MCF7, 48 h) [µM]	IC50 ([4]; MCF7, 96 h) [µM]	Compound	toxicity to normal MEF cells [1]	cells killed (MDA-MB-231 cells [2]) [%]	anticancer activity in initial screening [3]	times more cytotoxic than Tamoxifen [3]	times more effective than Ospemifene [3]	anticancer activity in initial screening [4]	times more cytotoxic than Tamoxifen [4]	times more effective than Ospemifene [4]	cells killed (MCF-7 cells; 10 μM) [%]	effect on invasion of ER-negative cells (MDA-MB-231 cells [5])	expression of c-Myc (c-Myc)	expression of caveolin (caveolin)	cytotoxic activity [3, 6]	expression of MMP-9 (MMP-9)	cytotoxic activity [4, 6]	dead cells (MCF-7 cells; increasing amount of compound)
17.1	13.4	23.6	11.2	NCCOc1ccc(/C(=C(/CCN)c2ccccc2)c2ccccc2)cc1 [Compound 7, (Z)-4-{4-(2-aminoethoxy)phenyl}-3,4-diphenylbut-3-en-1-amine]	non-toxic	70	more potent than Ospemifene	at least five	eight	more potent than Ospemifene	at least five	about five	70							
				(Z)-[4-azido-1-{4-(2-azidoethoxy) phenyl}but-1-ene-1,2-diyl]dibenzene [Compound 5]										suppressed the invasion	inhibited the expression	inhibited the expression	much more effective than the standards	inhibited the expression	much more effective than the standards	
25	14.5	15.9	12.4	NCC/C(=C(\c1ccccc1)c1ccc(OCCO)cc1)c1ccccc1 [Compound 6, (Z)-2-{4-(4-amino-1,2-diphenylbut-1-enyl)phenoxy}ethanol]	non-toxic		more potent than Ospemifene	at least five	eight	more potent than Ospemifene	at least five	about five								50-70%
